Experimental data as given in patent US20180015101A1, “COMPOSITIONS AND METHODS FOR ANTIGEN-SPECIFIC TOLERANCE” (INSERM (INSTITUT NATIONAL DE LA SANTÉ ET DE LA RECHERCHE …, priority 2014, published 2018).

Assays:
NOD mice = conditions: administered systemically before disease onset; cited from earlier work
C57BL/6 mice = assay: Experimental Autoimmune Encephalomyelitis (EAE), prophylactic and curative intradermal treatment; assay type: in vivo; conditions: for protection against EAE (clinical score): i.d., low dose CoPP 0.2 mg/mouse, preventive or curative settings
Experimental: Experimental Autoimmune Encephalomyelitis (EAE) induction: Briefly, C57BL/6 were immunized by a subcutaneous injection of emulsified complete freund adjuvant (CFA, sigma aldrich) complemented with mycobacterium tuberculosis (400 μg, BD) and MOG35-55 peptide (200 μg, genecust). Pertussis toxin is injected (200 ng i.v, VWR) at the time of immunization and two days later. Clinical signs of EAE were evaluated daily and scored as follows: 0, normal; 1, limp tail; 2, partial paralysis of the hind limbs; 3, complete paralysis of the hind limbs; 4, hind-limb paralysis and forelimb weakness; 5, moribund or deceased
[…] Same injections were repeated twice at three days interval. For curative treatment, mice were treated with one injection in each ear at the EAE onset (i.e., mean clinical score, 0.72±0.1) with the same quantity than in prophylactic treatment. Same injections were repeated twice at three days interval after EAE onset.

[1] = test system: Human monocytic THP-1 cells; assay: HO-1 expression in THP-1 cells after HO-1 inducer treatment; assay type: cell-based; conditions: 16 hours in vitro
Experimental: Human THP-1 monocytic cell line and co-culture with CD8^+ T cells clones: THP-I cells were cultured in RPMI 1640 (Gibco) supplemented with 10% fetal bovine serum (Eurobio), 1% glutamine (Gibco), 50 IU/mL penicillin 50 IU/mL streptomycin (Gibco) and 200 nM PMA (Sigma-Aldrich) under standard conditions as previously described (36).
(§1) Flow Cytometry: Single-cells suspensions of spleen and lymph nodes were stained with anti-CD8 (clone 53-6.7), anti-CD45.1 (clone A20), anti-CD49b/α2 (clone DX5), anti-CD49d/α4 (clone RI-2), anti-ITGAE/αE (clone M290), anti-CD29/β1-integrin (clone Ha2/5), anti-CD18/β2-integrin (clone C71/16), anti-CD61/β3-integrin (clone 2C9.G2), anti-CD62E (clone 10E9.6), anti-CD62L (clone Mel14), anti-PSGL1 (clone 2PH1), anti-ICAM-1 (clone 3E2), anti-VCAM-1 (clone 429), anti-CD183/CXCR3 (clone CXCR3-173), anti-CD195/CCR5 (clone C34-3448), anti-GITR (clone DTA-1), anti-PD-1 (clone J43), anti-CD28 (clone 37.51), anti-CD38 (clone 90), anti-CD69 (clone H1.2F3), anti-CD44 (clone IM7), anti-CD107b (clone ABL-93) antibodies. All antibodies are from BD Biosciences. Intracellular staining of HO-1 using BD cytofix/cytoperm kit following manufacturers' recommendations were performed with anti-HO-1 antibody (clone HO-1-2, abcam) as primary labeling reagent and with anti-anti-IgG1 (clone MOPC-21) monoclonal antibody conjugated to a fluorochrome as secondary labeling reagent.

HO-1 [2] = assay: HO-1 induction in lymph nodes of baboons after intradermal Normosang; assay type: in vivo, Baboons (Papio anubis); conditions: 24 h after intradermal 6.25, 12.5 or 25 mg
Experimental: Non-Human primates: Baboons (Papio anubis, from the CNRS Primatology Center, Rousset, France) were negative for all quarantine tests. Animals were housed at the large animal facility of our laboratory following the recommendations of the Institutional Ethical Guidelines of the Institut National de la Santé Et de la Recherche Médicale, France. All experiments were performed under general anaesthesia with Zoletil (Virbac, Carron, France). Three Baboons were injected intradermally in the inguinal fold with respectively 6.25 mg (500 μL), 12.5 mg (500 μL) or 25 mg (1 mL) of clinical hemin (Normosang®). A non-treated baboon has served as control. Inguinal lymph nodes were surgically removed 24 hours after intradermal injection. Single-cell suspensions for flow cytometry analysis were prepared by enzymatic lymph node disaggregation with Collagenase D (Sigma-Aldricht).
Intradermal immunization with Normosang®: Three Baboons were injected intradermally in the inguinal fold with respectively 6.25 mg (500 μL), 12.5 mg (500 μL) or 25 mg (1 mL) of clinical hemin (Normosang®). A non-treated baboon has served as control.
Inguinal lymph nodes were surgically removed 24 hours after intradermal injection. Single-cell suspensions for flow cytometry analysis were prepared by enzymatic lymph node disaggregation with Collagenase D (Sigma-Aldricht). […]

Human PBMC = assay: HO-1 expression in human PBMC after in vitro hemin treatment; assay type: cell-based; conditions: 4 hours in vitro
Experimental: Human and non-human primate PBMC: Human PBMCs were obtained at the Etablissement Français du Sang in Nantes from blood of healthy donors. After Ficoll-Paque density gradient centrifugation (GE Healthcare), PBMC were cultured in RPMI 1640 (Gibco) supplemented with 10% fetal bovine serum (Eurobio), 1% glutamine (Gibco), 50 IU/mL penicillin 50 IU/mL streptomycin (Gibco) in presence or not of CoPP or hemin during 4 hours.
as §1, with “Intracellular staining of HO-1 using BD cytofix/cytoperm kit following manufacturers' recommendations were performed with anti-HO-1 antibody (clone HO-1-2, abcam) as primary labeling reagent and with anti-anti-IgG1 (clone MOPC-21) monoclonal antibody conjugated to a fluorochrome as secondary labeling reagent.” left out

HO-1^+ MoDCs = assay: MoDC recruitment in draining LN after intradermal injection; assay type: in vivo; conditions: given as dermal migration inhibitor in CoPP-injected mice
Experimental: Isolation of murine APCs and co-culture with autoreactive CTLs: For MHC-II^+ and F4/80^+ cells isolation, skin-draining LNs were removed 24 hours after intradermal injection in the back or in the ear. Single-cell suspensions were prepared by enzymatic lymph node disaggregation with collagenase D (Sigma-Aldricht). Cells were stained with anti-MHC-II-FITC (clone AF6-120.1, BD pharmingen) or anti-F4/80-PE (clone BM8, eBioscience) monoclonal antibodies as primary labeling reagent and respectively with anti-FITC or anti-PE microbeads (Miltenyi) as secondary reagent. After magnetic separation, we checked that purity was >82% for CD11b^+CD11c^lowLy6C^highF4/80^+ cells in CoPP-OVA immunized mice. These cells were co-cultured with autoreactive CTLs (respectively 1:1 and 1:5 APC to CTL ratio) overnight for velocity measurement and transwell migration assay. […]

Rip-OVA^high mice = assay: Diabetes induction in Rip-OVAhigh mice by transfer of autoreactive CTLs after immunization; assay type: in vivo; conditions: intradermal injection one day before CTL transfer
Experimental: Intradermal immunization of mice and diabetes induction: Eight to ten week-old Rip-OVAhigh mice received two intradermal injections in the back with 70 μg of CoPP (Livchem) prepared as described and 20 μg of endofree ovalbumin (Hyglos) in 10 μl. One hundred and forty micrograms of MnPP (Livchem) prepared as described (18) was added to the preparation for HO-1-inhibition experiments. Forty micrograms of Alexa Fluor® 488 ovalbumin (Molecular Probes) has been used for phagocytosis assay. For diabetes induction, mice were injected i.v. the following day with 0.5×10^5 autoreactive cytotoxic OT-I CD8^+ T cells (purity >95%) previously co-cultured or not with MHC-II^+ or F4/80^+ cells during 4 hours. […]
Histological analysis: For evaluation of insulitis, pancreata were snap-frozen and cryosections (8 μm thick) were acetone-fixed. Sections were stained with H&E (Thermo Electron Corp.), and the degree of insulitis was evaluated microscopically.
Light-sheet-based fluorescent microscopy analysis: Animals were perfused with PFA 4% and washed with PBS. […] For GFP fluorescence imaging, we used a 525/50 band pass filter on the turret. […] The images stacks are analyzed using ImageJ software (Rasband, W. S., ImageJ, U. S. National Institutes of Health, Bethesda, Md., USA, http://imagej.nih.gov/ij/, 1997-2012).

HO-1 [3] = assay: HO-1 expression in MHC-II+ cells of draining lymph nodes after intradermal injection (FACS); assay type: in vivo, mice
Experimental: Isolation of murine APCs and co-culture with autoreactive CTLs: For MHC-II^+ and F4/80^+ cells isolation, skin-draining LNs were removed 24 hours after intradermal injection in the back or in the ear. Single-cell suspensions were prepared by enzymatic lymph node disaggregation with collagenase D (Sigma-Aldricht). Cells were stained with anti-MHC-II-FITC (clone AF6-120.1, BD pharmingen) or anti-F4/80-PE (clone BM8, eBioscience) monoclonal antibodies as primary labeling reagent and respectively with anti-FITC or anti-PE microbeads (Miltenyi) as secondary reagent. After magnetic separation, we checked that purity was >82% for CD11b^+CD11c^lowLy6C^highF4/80^+ cells in CoPP-OVA immunized mice. These cells were co-cultured with autoreactive CTLs (respectively 1:1 and 1:5 APC to CTL ratio) overnight for velocity measurement and transwell migration assay.
Intradermal immunization of mice and diabetes induction: Eight to ten week-old Rip-OVAhigh mice received two intradermal injections in the back with 70 μg of CoPP (Livchem) prepared as described and 20 μg of endofree ovalbumin (Hyglos) in 10 μl. One hundred and forty micrograms of MnPP (Livchem) prepared as described (18) was added to the preparation for HO-1-inhibition experiments. Forty micrograms of Alexa Fluor® 488 ovalbumin (Molecular Probes) has been used for phagocytosis assay. For diabetes induction, mice were injected i.v. the following day with 0.5×10^5 autoreactive cytotoxic OT-I CD8^+ T cells (purity >95%) previously co-cultured or not with MHC-II^+ or F4/80^+ cells during 4 hours.
as §1

[4] = after CoPP intradermal injection

Compound | effect on T1D (NOD mice) | protection against EAE (clinical score) (C57BL/6 mice) | HO-1 expression in THP-1 cells [1] | diabetes development (Rip-OVA^high mice) | also measured
[C-]#[O+] [CO, carbon monoxide] | inhibit T1D in NOD mice | – | – | – | –
MOG35-55: myelin oligodendrocyte glycoprotein (MOG) 35-55 peptide, cognate antigen in EAE (MEVGWYRSPFSRVVHLYRNGK; UniProt Q61885 63-83, looked up, fragment) | – | protection was not observed | – | – | –
protoporphyrin IX containing a ferric iron ion (Heme B) with a chloride ligand [hemin] | – | – | dose-dependently expressed HO-1 | – | frequency of HO-1+ cells in draining LN (HO-1 [2]): dose-dependently increased; HO-1 expression in human MHC-II+CD11clowCD14+ cells (Human PBMC): induced highest HO-1 expression
O=C(O)CCCCCCC1C(=O)NC(=O)N1CCC(O)C1CCCCC1 (stereo not shown) [BW245c] | – | – | – | – | effect on MoDC recruitment (HO-1^+ MoDCs): did not affect
ovalbumin | – | – | – | protection was not observed | –
C=CC1=C(C)c2cc3[n-]c(cc4nc(cc5[n-]c(cc1n2)c(C)c5CCC(=O)[O-])C(CCC(=O)[O-])=C4C)c(C)c3C=C.[Co+2].[H+].[H+] [CoPP, Cobalt protoporphyrin] | inhibit T1D in NOD mice | not sufficient to tolerize against EAE | dose-dependently expressed HO-1 | protection was not observed | MOG-specific CD4+ T-cell proliferation capacity (C57BL/6 mice; vs untreated mice): same proliferation capacity; duration of HO-1 induction (HO-1 [3]; [4]): at least 72 hours; earliest time HO-1 induction observed (HO-1 [3]; [4]): ≤ 24 h; localisation of HO-1 induction (HO-1 [3]; intradermal injection): restricted to the draining LNs; increase of HO-1 expression in MHC-II+ cells in draining lymph nodes (HO-1 [3]; intradermal injection, RIP-OVAhigh mice): 5.8 fold
